Reference: patent US9126976B2 (Merck Sharp & Dohme Corp., priority 2011, dated 2015)

Assays:
[1] = molecular target: endogenous CETP from serum (Homo sapiens (Human), UniProt P11597); test: RTA assay using endogenous CETP from serum (95% human serum); type: biochemical; settings: RTA in 95% human serum, Table 2
Procedure: In Vitro Radioactive Assays of CETP-Catalyzed CE and TG Transfer (RTA Assay)
Reagents and sources are: [3H] cholesteryl oleate (GE #TRK.886), [3H] Triolein (Perkin-Elmer NET-431), Butylated hydroxyl toluene (Aldrich, #D4740-4), DOPC (Sigma, # P6354), Sodium Bromide (Fisher scientific #S255-500), PEG 8000 (Fisher, #BP233-1), and human HDL (Intracel Corp #RP-036).
An in vitro assay for determining IC50's to identify compounds that inhibit CETP transfer activity is performed based on a modification of a published method (Morton and Zilversmit, (1981) A plasma inhibitor of triglyceride and cholesteryl ester transfer activities, J. Biol. Chem. 256(23), 11992-11995). The ability of inhibitors to alter CETP activity is performed using two different assays: one using recombinant CETP and one using an endogenous plasma source of CETP. Both assays measure the transfer of [3H] cholesteryl oleate or [3H] triolein from exogenous LDL to HDL.
Radiolabeled donor particles are generated by first combining 100 μl of 200 μM butylated hydroxyl toluene in CHCl3, 216 μL of 21.57 mM DOPC in EtOH, and either 500 μCi [3H]-triolein (Perkin Elmer #NET-431) or 500 μCi [3H]-cholesteryl oleate (GE #TRK886) in a glass tube. Reagents are mixed, dried under nitrogen, and then resuspended in 2 mL of 50 mM Tris, 27 μM EDTA at pH 7.4. After a brief vortex, the solution is sonicated until clear and mixed with 20 mL of fresh human serum. The mixture is incubated overnight at 37° C. The [3H] labeled LDL substrate is separated at 1.063 g/ml density by sequential ultracentrifugal flotation in NaBr according to the method by (Havel, Eder et al. 1955; Chapman, Goldstein et al. 1981). Once isolated the particles are dialyzed 3× in CETP buffer (50 mM Tris, pH 7.4, 100 mM NaCl, 1 mM EDTA). Human HDL is purchased from Intracel and used as the acceptor particles.
Transfer assays are performed in a 96-well v-bottom polypropylene plate. For the RTA using recombinant CETP (2% RTA), an assay cocktail is prepared with the final concentrations 128 μg/mL HDL, 20 nM rCETP, 2% human serum, and 1×CETP buffer. 1 μL of each test compound diluted in DMSO is added to 47 μL of assay cocktail per well and incubated at 37° C. for 1 hour. To initiate the transfer reaction, 2 μL radiolabeled LDL is added. After an additional 60 min of incubation at 37° C., the transfer action is terminated by precipitation of LDL with an equal volume of 20% W/V PEG 8000. The plates are centrifuged at 2000 rpm for 30 minutes at 4° C. A 40 μL aliquot of the HDL-containing supernatant is transferred to a Packard Optiplate™ with 200 μL of MicroScint™ 20. After mixing, plates are counted by liquid scintillation. […]

[2] = cited from earlier work
[3] = torcetrapib and atorvastatin concomitantly compared with atorvastatin alone; cited from earlier work
[4] = patients, with baseline statin therapy, compared with just a statin

Chain of endogenous CETP from serum (P11597 18-493 limits assumed): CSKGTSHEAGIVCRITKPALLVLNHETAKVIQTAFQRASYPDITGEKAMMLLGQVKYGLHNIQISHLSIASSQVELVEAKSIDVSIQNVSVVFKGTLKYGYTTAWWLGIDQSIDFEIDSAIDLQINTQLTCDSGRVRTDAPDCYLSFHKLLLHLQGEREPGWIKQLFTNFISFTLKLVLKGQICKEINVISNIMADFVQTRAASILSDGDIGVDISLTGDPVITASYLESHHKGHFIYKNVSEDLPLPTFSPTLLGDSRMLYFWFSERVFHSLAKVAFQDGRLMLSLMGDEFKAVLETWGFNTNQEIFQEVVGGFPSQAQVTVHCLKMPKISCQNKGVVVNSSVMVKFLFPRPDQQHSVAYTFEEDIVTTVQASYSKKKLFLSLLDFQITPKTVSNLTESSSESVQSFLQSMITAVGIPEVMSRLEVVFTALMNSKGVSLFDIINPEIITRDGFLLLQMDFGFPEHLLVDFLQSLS

## O[C@H](CN1c2ccccc2N(Cc2cccc(OC(F)F)c2)CC1c1cccc(OC(F)F)c1)C(F)(F)F (stereo partly drawn) [Example 60]
[1]
  IC50: 14 nM

## O[C@H](CN1c2ccccc2N(Cc2cccc(OC(F)(F)F)c2)CC1c1cccc(OC(F)F)c1)C(F)(F)F (stereo partly drawn) [Example 61]
[1]
  IC50: 7.5 nM

## COc1cc(F)c(C(C)C)cc1-c1ccc(C(F)(F)F)cc1CN1C(=O)O[C@H](c2cc(C(F)(F)F)cc(C(F)(F)F)c2)[C@@H]1C [anacetrapib]
[2]; patients treated with anacetrapib
  increase in mortality: unlikely
[2]; [4]
  decrease of LDL-C: 40%
  increase of HDL-C: 138%

## CCOC(=O)N1c2ccc(C(F)(F)F)cc2[C@@H](N(Cc2cc(C(F)(F)F)cc(C(F)(F)F)c2)C(=O)OC)C[C@H]1CC [torcetrapib]
[3]
  mortality: higher incidence of mortality
